The values below are quoted from earlier work in patent US8614222B2, “Methods of preventing and treating low bone mass diseases” (The Trustees of Columbia University in the City of New York, priority 2008, dated 2013).

The target in the data set is rb 5-HT1B receptors (Oryctolagus cuniculus, UniProt P49144). As to conditions: cited from earlier work.

SMILES strings stand for the structures.

Chain of rb 5-HT1B receptors (P49144 whole entry): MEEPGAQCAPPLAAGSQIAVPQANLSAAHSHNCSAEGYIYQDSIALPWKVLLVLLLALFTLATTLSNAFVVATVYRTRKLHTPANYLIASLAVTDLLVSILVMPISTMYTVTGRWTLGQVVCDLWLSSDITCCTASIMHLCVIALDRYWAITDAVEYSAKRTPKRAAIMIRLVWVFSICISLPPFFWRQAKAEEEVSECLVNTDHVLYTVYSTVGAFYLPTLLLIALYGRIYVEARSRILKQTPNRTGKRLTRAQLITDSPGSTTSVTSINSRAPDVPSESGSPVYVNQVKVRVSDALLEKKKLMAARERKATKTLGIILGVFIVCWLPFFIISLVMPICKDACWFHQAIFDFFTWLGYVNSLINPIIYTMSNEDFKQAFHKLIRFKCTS

`CSc1ccc2c(c1)C(N1CCN(C)CC1)Cc1ccccc1S2` (stereo not shown) [methiothepin]: the “behaviour at rb 5-HT1B receptors” value was “as silent, competitive antagonists”.
